Measured values published in patent publication US9737512B2, “Methods and compositions for treating chronic pain” (THE BOARD OF REGENTS OF THE UNIVERSITY OF TEXAS SYSTEM, priority 2015, dated 2017).

Assays:
[1] = system: paclitaxel-induced mechanical allodynia; test: Paclitaxel (chemotherapy)-induced mechanical allodynia, von Frey; type: in vivo, mice
Procedure: FIG. 4. Effect of ESI-09 on chemotherapy-induced mechanical allodynia. Mice (n=5/group) were treated with paclitaxel (10 mg/kg, Monday, Wednesday and Friday) for two weeks. ESI-09 (20 mg/kg) or vehicle was given by oral gavage for 6 days starting on the first day (A) or 10 days (B) after completion of paclitaxel treatment. The sensitivity to mechanical stimulation was determined in wild-type (n=5) and Epac1−/− (n=4) in the same paclitaxel model (C). Mechanical allodynia was monitored by von Frey hair using the up and down method. Data are expressed as means±SEM. *p<0.05, ** p<0.01.
Chemotherapy-induced peripheral neuropathy is a frequent side effect of cancer treatment, and currently there are no FDA-approved drugs to treat or prevent chemotherapy-induced neuropathy. The model of paclitaxel-induced mechanical allodynia to investigate the potential effect of ESI-09 on chemotherapy-induced neuropathy. Mice were treated with three doses (10 mg/kg/dose) of paclitaxel per week for 2 weeks. Administration of ESI-09 was started on the first day after completion of paclitaxel treatment when there was clear allodynia present. Mice were treated daily with ESI-09 (20 mg/kg) or vehicle by oral gavage for 6 days. […] The beneficial effect of treatment was detectable until 72 hours after the last dose of ESI-09. In a second set of experiments, ESI-09 treatment was delayed until 10 days after the completion of paclitaxel treatment.

[2] = system: ovalbumin-induced oral tolerance; settings: daily 10 mg/kg IP or 50 mg/kg oral gavage; cited from earlier work
[3] = system: pancreatic cancer cell lines; settings: cited from earlier work
[4] = system: SNI-induced mechanical allodynia; test: Spared nerve injury (SNI)-induced mechanical allodynia, von Frey; type: in vivo, mice
Procedure: FIG. 3. Effect of ESI-09 on Spared nerve injury (SNI)-induced mechanical allodynia. Spared nerve injury was performed on WT mice and mice were treated daily with ESI-09 (50 mg/kg) or vehicle by oral gavage for 6 days starting on the 3rd day after SNI. Mechanical allodynia was monitored in (A) ipsi- and (B) contralateral paw using von Frey hairs and the up and down method at 24 hours after ESI-treatment (n=7 per group). Data are expressed as 50% paw withdrawal thresholds calculated as described in the methods section and represent mean±SEM. n=7/group. *p<0.05, **p<0.01 vs. vehicle group.
It has been shown that EPAC1−/− mice are protected against neuropathic pain in a model of nerve injury. The effect of ESI-09 in the spared nerve injury (SNI) model of chronic neuropathic pain was examined. […] As expected, mice treated with vehicle developed unilateral mechanical allodynia ([…]). […] The beneficial effect of ESI-09 was maintained for 48 hours after the last dose.

EPAC2 = biological target: T1, EPAC2 (Mus musculus, UniProt Q9EQZ6); settings: cited from earlier work
T1 sequence (Q9EQZ6 1-1011): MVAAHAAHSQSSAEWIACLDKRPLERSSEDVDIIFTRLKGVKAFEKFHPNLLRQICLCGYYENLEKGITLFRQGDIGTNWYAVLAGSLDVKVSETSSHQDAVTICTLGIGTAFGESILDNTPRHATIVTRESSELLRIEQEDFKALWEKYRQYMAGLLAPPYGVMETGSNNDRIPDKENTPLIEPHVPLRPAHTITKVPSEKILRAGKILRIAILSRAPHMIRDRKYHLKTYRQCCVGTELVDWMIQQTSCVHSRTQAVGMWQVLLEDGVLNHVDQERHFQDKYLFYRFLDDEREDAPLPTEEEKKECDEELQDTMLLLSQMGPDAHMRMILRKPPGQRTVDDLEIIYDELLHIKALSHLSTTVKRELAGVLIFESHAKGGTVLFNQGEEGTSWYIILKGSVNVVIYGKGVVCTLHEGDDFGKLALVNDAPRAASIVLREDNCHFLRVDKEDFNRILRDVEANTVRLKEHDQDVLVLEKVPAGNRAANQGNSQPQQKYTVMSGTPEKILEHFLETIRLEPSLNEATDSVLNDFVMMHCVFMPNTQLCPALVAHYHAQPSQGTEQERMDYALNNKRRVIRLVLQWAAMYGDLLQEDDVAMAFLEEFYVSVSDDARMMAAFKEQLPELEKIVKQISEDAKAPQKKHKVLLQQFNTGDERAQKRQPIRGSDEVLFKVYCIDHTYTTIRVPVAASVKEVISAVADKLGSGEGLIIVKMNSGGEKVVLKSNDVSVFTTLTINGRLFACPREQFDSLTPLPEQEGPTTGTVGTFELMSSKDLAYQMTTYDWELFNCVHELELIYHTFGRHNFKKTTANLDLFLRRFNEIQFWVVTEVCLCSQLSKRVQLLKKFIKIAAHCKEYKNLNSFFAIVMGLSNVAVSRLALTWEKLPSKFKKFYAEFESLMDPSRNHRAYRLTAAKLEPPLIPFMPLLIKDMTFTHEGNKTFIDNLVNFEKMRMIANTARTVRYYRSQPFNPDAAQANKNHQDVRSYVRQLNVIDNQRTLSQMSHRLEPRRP

PKA = settings: at 25 μM; cited from earlier work
[5] = system: CFA-induced heat hyperalgesia; test: CFA-induced heat hyperalgesia, Hargreaves test; type: in vivo, mice
Procedure: FIG. 2. Effect of ESI-09 on CFA-induced heat hyperalgesia. (A) Mice (n=4/group) received 5 μl CFA intraplantarly in the hind paws and were treated with vehicle or ESI-09 20 mg/kg (n=4) daily by oral gavage for 6 days starting after CFA injection. Heat hyperalgesia was determined using the Hargreaves test and is expressed as heat-withdrawal latency in seconds. (B) CFA-induced heat hyperalgesia in WT and Epac1−/− mice. (C) Heat sensitivity of saline treated mice with 20 mg/kg ESI-09. Data represent mean±SEM (n=4 per group).
Intraplantar administration of CFA also induces significant heat hyperalgesia (FIG. 2A). However, no effect of ESI-09 (20 mg/kg) on heat hyperalgesia was detected (FIG. 2A). Consistently, CFA-induced heat hyperalgesia was not different between WT and Epac1−/− mice.

pancreatic cell lines = settings: cited from earlier work
[6] = system: CFA-induced mechanical allodynia; test: CFA-induced mechanical allodynia, von Frey test; type: in vivo, mice
Procedure: FIG. 1. Effect of ESI-09 in CFA-induced inflammatory mechanical allodynia. (A) Mice (n=4/group) received 5 μl CFA intraplantarly in the hind paws and were treated with vehicle or ESI-09 20 mg/kg (n=4) daily by oral gavage for 6 days starting immediately after CFA injection. Mechanical allodynia was quantified with von Frey Hairs using the up and down method at 24 hours after ESI treatment. (B) CFA-induced mechanical allodynia in WT, heterozygous, and homozygous Epac1-knockout mice. The sensitivity to mechanical stimulation was followed over time in wild-type (WT, n=3), Epac1^+/− (HE, n=6) and Epac1^−/− (HO, n=5) mice after intraplantar injection of 5 μl CFA. […] (D) Dose-response curve for the effect of ESI-09 (5, 20, or 50 mg/kg). Treatment was started on the 3rd day after CFA administration (n=4/group) (E) Mechanical allodynia was measured in WT mice with 6 days treatments of ESI-09 20 (n=3) and 50 mg/kg (n=4) to control for a potential effect on baseline mechanical sensitivity. Data are expressed as 50% withdrawal threshold in grams calculated as described in the methods section and represent mean±SEM. […] In FIG. 1B, *p<0.05, ** p<0.01 for WT versus HO, #p<0.05, ##P<0.01 for WT versus HE, +p<0.05, ++p<0.01 for HE versus HO. In FIG. 1D, **p<0.01 and ##p<0.01 are ESI-09 50 mg/kg and ESI-09 20 mg/kg compared to the Vehicle treated mice.
To determine whether the Epac inhibitor ESI-09 can be used to treat inflammatory pain, the CFA model was used. CFA was administered intraplantarly and mice were treated with ESI-09 20 mg/kg daily by oral gavage for 6 days starting immediately after injection of CFA. Mechanical allodynia was examined using the von Frey test.
ESI-09 20 mg/kg was administered orally three days after CFA. […] The effect of ESI-09 was dose-dependent (FIG. 1D). […] The beneficial effect of ESI-09 was detectable until at least 24 hours after the last dose. No effect of daily oral administration of 50 mg/kg ESI-09 on mechanical sensitivity in saline treated control mice was observed ([…]).

rickettsioses = settings: daily 10 mg/kg IP or 50 mg/kg oral gavage, mice; cited from earlier work
[7] = 50 mg/kg oral gavage daily 6 days, starting 3 days after SNI

In the case of `CC(C)(C)c1cc(C(=O)/C(C#N)=N/Nc2cccc(Cl)c2)no1` [ESI-09, 3-(5-tert-Butyl-isoxazol-3-yl)-2-[(3-chlorophenyl)-hydrazono]-3-oxo-propionitrile], the paclitaxel-induced mechanical allodynia ([1]; 20 mg/kg oral gavage daily 6 days, started first day after completion of paclitaxel) is reported as “almost completely rescued”, the “time beneficial effect detectable after the last dose” value ([1]; paclitaxel model, 20 mg/kg) is reported as 72 h and the “paclitaxel-induced mechanical allodynia, later phase” value ([1]; treatment delayed until 10 days after completion of paclitaxel) is reported as “significantly inhibited”. For the same compound, the “ovalbumin-induced oral tolerance (recapitulates EPAC1 knockout phenotype)” value [2] was “compromising ovalbumin-induced oral tolerance”, the “migration of pancreatic cancer cell lines” value [3] was “inhibits” and the “SNI-induced mechanical allodynia, ipsilateral paw” value [4, 7] was “almost completely reversed”. The “normal mechanical sensitivity, contralateral paw” value [4, 7] was “without affecting”, the “time beneficial effect maintained after the last dose” value ([4]; SNI model, 50 mg/kg) was 48 h and the IC50 (EPAC2) was 1400 nM. For the same compound, the “activity against PKA” value (PKA) was “no activity”, the CFA-induced heat hyperalgesia ([5]; 20 mg/kg daily oral gavage) was “no effect” and the “heat sensitivity of naïve animals” value ([5]; naïve animals) was “did not affect”. The insulin secretion (pancreatic cell lines) was “blocks”, the “phosphorylation of Akt” value (pancreatic cell lines) was “blocks” and the CFA-induced mechanical allodynia ([6]; 5 mg/kg (lowest dose), started 3rd day after CFA) was “did not observe an effect”. For the same compound, the CFA-induced mechanical allodynia ([6]; 20 mg/kg daily oral gavage 6 days, starting immediately after CFA) was “strongly inhibited”, the “time inhibition is maintained after administration” value ([6]; 20 mg/kg oral, started three days after CFA) was “at least 24 h” and the “inhibition of CFA-induced mechanical allodynia at 2 hours” value ([6]; 20 mg/kg oral, started three days after CFA, 2 hours after administration) was “Partial inhibition”. For the same compound, the “inhibition of CFA-induced mechanical allodynia at 6 hours” value ([6]; 20 mg/kg oral, started three days after CFA, 6 hours after administration) was “fully developed”, the CFA-induced mechanical allodynia ([6]; 20 mg/kg, started 3rd day after CFA) was “significantly reduced” and the “mechanical sensitivity in saline treated control mice” value ([6]; 50 mg/kg daily oral) was “No effect”. For the same compound, the CFA-induced mechanical allodynia ([6]; 50 mg/kg, started 3rd day after CFA) was “significantly reduced”, the “dose dependence of effect on CFA-induced mechanical allodynia” value ([6]; 5, 20 or 50 mg/kg, started 3rd day after CFA) was “dose-dependent” and the “time beneficial effect detectable after the last dose” value ([6]; CFA model) was “at least 24 hours”. For the same compound, the “mechanical sensitivity of control mice” value ([6]; ESI-09 given to control mice (no CFA)) was “did not have any effect” and the “protection from lethal rickettsioses (recapitulates EPAC1 knockout phenotype)” value (rickettsioses) was “protecting mice from lethal rickettsioses”.
